{"source": "patent US20230277569A1", "about": "“Compositions and Methods for Treating, Ameliorating and/or Preventing Cancer and Kits for the Same” (priority 2022, published 2023)", "key": {"[1]": {"molecular_target": "T1, hERG (Homo sapiens, UniProt Q12809)", "T1 construct": "expressed in transfected cells; host or cells: HEK293 (ATCC), polyclonal, stably transfected, G418 selection", "T1 sequence (Q12809 whole entry)": "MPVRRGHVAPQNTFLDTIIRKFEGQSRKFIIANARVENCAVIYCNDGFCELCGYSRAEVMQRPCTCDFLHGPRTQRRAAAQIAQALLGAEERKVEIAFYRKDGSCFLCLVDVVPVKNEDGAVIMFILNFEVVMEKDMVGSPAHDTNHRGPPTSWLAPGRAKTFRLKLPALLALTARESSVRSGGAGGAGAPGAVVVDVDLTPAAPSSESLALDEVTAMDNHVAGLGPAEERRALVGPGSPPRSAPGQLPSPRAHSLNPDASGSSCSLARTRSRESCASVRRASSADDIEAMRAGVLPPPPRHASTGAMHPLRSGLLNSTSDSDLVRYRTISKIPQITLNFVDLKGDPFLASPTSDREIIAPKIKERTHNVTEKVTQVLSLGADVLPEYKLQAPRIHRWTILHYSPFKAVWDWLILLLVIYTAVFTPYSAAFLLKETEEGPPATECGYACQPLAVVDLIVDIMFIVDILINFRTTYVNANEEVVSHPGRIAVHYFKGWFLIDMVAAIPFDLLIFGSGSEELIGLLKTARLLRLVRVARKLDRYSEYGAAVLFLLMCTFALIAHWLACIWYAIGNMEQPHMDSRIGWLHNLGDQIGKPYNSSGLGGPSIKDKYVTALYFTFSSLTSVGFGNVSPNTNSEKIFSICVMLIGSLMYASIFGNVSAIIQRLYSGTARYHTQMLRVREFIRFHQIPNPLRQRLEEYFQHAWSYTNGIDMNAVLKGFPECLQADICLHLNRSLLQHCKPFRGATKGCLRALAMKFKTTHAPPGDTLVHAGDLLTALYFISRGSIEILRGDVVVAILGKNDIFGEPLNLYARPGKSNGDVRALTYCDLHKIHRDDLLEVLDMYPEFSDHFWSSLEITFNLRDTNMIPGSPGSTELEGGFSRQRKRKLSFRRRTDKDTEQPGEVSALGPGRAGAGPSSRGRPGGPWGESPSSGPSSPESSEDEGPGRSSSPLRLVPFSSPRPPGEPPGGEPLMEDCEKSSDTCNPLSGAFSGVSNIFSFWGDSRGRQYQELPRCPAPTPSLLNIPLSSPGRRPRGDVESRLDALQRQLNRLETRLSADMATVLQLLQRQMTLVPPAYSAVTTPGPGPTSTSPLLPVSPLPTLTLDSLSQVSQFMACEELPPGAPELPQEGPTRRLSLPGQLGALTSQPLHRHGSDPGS", "experiment": "Ion channel screening, hERG", "assay_type": "cell-based", "conditions": "n=16, read-out: inhibition of hERG currents (ion channel screening)", "text": "The parameter measured was the maximum outward current evoked on stepping to +60 mV from the holding potential of −80 mV. hERG currents were evoked by a three-pulse protocol where voltage was first stepped to +40 mV for two sec from a holding potential of −80 mV to inactivate hERG channels. The voltage is then stepped back to −50 mV for two sec to evoke a tail current prior to returning to the holding potential for 1 sec. The parameter measured was the amplitude of the 3rd pulse tail current upon stepping back to −50 mV after the step to +40 mV. Human HCN4 currents were evoked by a single pulse from a holding potential of −30 mV to a potential of −110 mV for 4 sec prior to returning to −30 mV. The parameter measured was the maximum inward current evoked upon stepping to −110 mV from the holding potential of −30 mV. Human Kir2.1 currents were evoked from a holding potential of −20 mV by a series of 10 500 msec pulses to −120 mV using a 200 msec interval between pulses. The parameters measured were the amplitudes of the instantaneous inward currents evoked on stepping to −120 mV for the 1st pulse and the maximum inward current at the end of the 10th hyperpolarizing pulse. For all experiments, data were filtered for seal quality, seal drop, and current amplitude."}, "[2]": {"test_system": "colon adenocarcinoma cell lines", "conditions": "colon adenocarcinoma lines of NCI 60 screen; read-out: IC50 anticancer activity; cited from earlier work"}, "[3]": {"test_system": "NCI 60 cell lines", "conditions": "NCI 60 cell line screen; read-out: IC50 anticancer activity; cited from earlier work"}, "[4]": {"experiment": "Phase I, cytochrome P450-mediated human liver microsome metabolism"}, "[5]": {"molecular_target": "CYP1A2 (Homo sapiens, UniProt P05177)", "sequence (P05177 whole entry)": "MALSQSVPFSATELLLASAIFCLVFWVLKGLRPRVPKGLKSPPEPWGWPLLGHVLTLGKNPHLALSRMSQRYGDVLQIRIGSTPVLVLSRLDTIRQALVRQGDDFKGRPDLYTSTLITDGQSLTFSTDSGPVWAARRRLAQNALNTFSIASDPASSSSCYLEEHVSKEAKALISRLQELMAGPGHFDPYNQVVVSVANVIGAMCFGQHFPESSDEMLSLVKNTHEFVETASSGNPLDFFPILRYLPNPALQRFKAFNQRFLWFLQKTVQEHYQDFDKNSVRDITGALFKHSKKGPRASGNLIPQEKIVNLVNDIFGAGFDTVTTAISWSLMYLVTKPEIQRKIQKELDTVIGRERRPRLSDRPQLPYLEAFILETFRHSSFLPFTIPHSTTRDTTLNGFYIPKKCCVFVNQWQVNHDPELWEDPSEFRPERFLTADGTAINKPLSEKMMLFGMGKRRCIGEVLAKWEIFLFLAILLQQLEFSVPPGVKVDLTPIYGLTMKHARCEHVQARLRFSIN", "experiment": "CYP inhibition in liver microsomes, CYP1A2", "assay_type": "in vitro ADME", "conditions": "human liver microsomes 0.1 mg/mL", "experimental": "(§1) After addition of prototypical CYP substrates in 250 μL, samples were incubated for 10 min (CYP1A2, CYP2B6, CYP2C9, and CYP3A4) or 20 min (CYP2C8) at 37° C. in 5% CO2. […] Samples were analyzed for metabolite formation by LC-MS/MS. The results were expressed using the peak area ratio of analyte to internal standard, based on the calibration curves.\n(§2) where Range=fitted uninhibited value, s=slope factor, x=inhibitor concentration, y=% control activity."}, "[6]": {"molecular_target": "Cav1.2 (Homo sapiens, UniProt Q13936)", "experiment": "Ion channel screening, Cav1.2", "assay_type": "cell-based", "conditions": "n=34, pulse 2, read-out: inhibition of Cav1.2 currents", "text": "The parameters measured were the maximum inward current evoked on stepping to −20 mV from the 1st and 26th pulse. Human Kv4.3/KChIP2 currents were evoked from a holding potential of −80 mV by a series of four 500 msec pulses to 0 mV using a 1000 msec interval between pulses. The parameter measured was the amplitude of the outward current 50 msec after the onset of the 4th voltage step to 0 mV. Human Cav1.2 currents were evoked by 2 pulses to −10 mV from a holding potential of −100 mV. The parameters measured were the maximum inward currents evoked on stepping to −10 mV from the holding potential of −100 mV for the 1st and 2nd pulse. Human Kv1.5 currents were evoked by a single pulse from a holding potential of −80 mV to a potential of 0 mV for 4 sec before returning to −80 mV. The parameters measured were the maximum amplitude of outward currents evoked at the beginning of the voltage pulse and at the end of the voltage step from −80 mV to 0 mV. Human KCNQ1/minK currents were evoked by a single pulse delivered from a holding potential of −80 mV to +60 mV for 4 sec before returning to −80 mV. The parameter measured was the maximum outward current evoked on stepping to +60 mV from the holding potential of −80 mV. hERG currents were evoked by a three-pulse protocol where voltage was first stepped to +40 mV for two sec from a holding potential of −80 mV to inactivate hERG channels. […]"}, "[7]": {"molecular_target": "CYP2C9 (Homo sapiens, UniProt P11712)", "sequence (P11712 whole entry)": "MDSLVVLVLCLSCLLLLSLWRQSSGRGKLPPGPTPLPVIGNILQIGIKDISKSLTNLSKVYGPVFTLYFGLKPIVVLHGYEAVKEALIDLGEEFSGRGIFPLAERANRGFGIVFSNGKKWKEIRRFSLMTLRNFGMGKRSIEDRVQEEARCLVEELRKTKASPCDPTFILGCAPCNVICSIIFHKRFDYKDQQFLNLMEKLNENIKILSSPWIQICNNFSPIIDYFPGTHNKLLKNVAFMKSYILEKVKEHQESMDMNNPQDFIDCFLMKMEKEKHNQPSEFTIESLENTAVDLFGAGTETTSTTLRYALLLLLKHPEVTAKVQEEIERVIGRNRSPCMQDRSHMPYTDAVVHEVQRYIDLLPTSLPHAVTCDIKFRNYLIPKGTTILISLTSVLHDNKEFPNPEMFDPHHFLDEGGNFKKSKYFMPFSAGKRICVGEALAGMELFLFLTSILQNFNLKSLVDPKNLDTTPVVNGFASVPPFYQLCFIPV", "experiment": "CYP inhibition in liver microsomes, CYP2C9", "assay_type": "in vitro ADME", "conditions": "human liver microsomes 0.1 mg/mL", "experimental": "as §1, §2"}}}
{"smiles": "CO[C@H]1/C=C\\C=C(/C)C(=O)NC2=CC(=O)C(NCCCCCC[P+](c3ccccc3)(c3ccccc3)c3ccccc3)=C(C[C@@H](C)C[C@H](OC)[C@H](O)[C@@H](C)/C=C(\\C)[C@@H]1OC(N)=O)C2=O", "note": "[Gamitrinib, 17-Demethoxy-17-((6-(triphenylphosphonio)hexyl)amino)geldanamycin]", "values": [{"measurement": "inhibition at 10 µM", "setting": "[1]", "value": "37.9 ± 1.7", "unit": "%"}, {"measurement": "IC50", "setting": "[2]", "value": "0.35 to 29", "unit": "µM"}, {"measurement": "IC50", "setting": "[3]", "value": "0.16 to 29", "unit": "µM"}, {"measurement": "elimination rate constant (k)", "setting": "[4]; 0.5 μM, human liver microsomes", "value": 0.041}, {"measurement": "intrinsic clearance (CLint)", "setting": "[4]; 0.5 μM, human liver microsomes", "value": 3.30, "unit": "mL/min/g"}, {"measurement": "half-life at 0.5 μM", "setting": "[4]; human, liver microsomes", "value": 16.7, "unit": "min"}, {"measurement": "IC50", "setting": "[5]", "value": 32.9, "unit": "µM"}, {"measurement": "inhibition at 10 µM", "setting": "[6]", "value": "12.2 ± 1.5", "unit": "%"}, {"measurement": "IC50", "setting": "[7]", "value": 1.1, "unit": "µM"}]}
